Target: T1, BRM (Homo sapiens, UniProt P51531)
T1 construct: Western Blot Screen of BRM Degradation in SW1573 Cells; endogenous in cells; host or cells: SW1573 cells
Assay: BRM degradation (Dmax and DC50) in SW1573 cells, Western blot screen / In-Cell Western screen
Format: cell-based
Conditions: overnight (18-20 hours) treatment; for Dmax: read-out: Dmax (%)** (% degraded)
Method: (§1) To assess BRM degradation (Dmax and DC50) cells were seeded at 8000/well in 96-well black/clear-bottom plates in 180 μL DMEM growth media (containing 1% pen-strep, 1% HEPES and 10% FBS) per well. Plates were incubated overnight to allow adhesion. The next morning cells were treated by adding 20 μL of 10× target compound concentration (1% DMSO) to appropriate wells and returned to incubator for overnight (18-20 hours). The final DMSO concentration was 0.1%.
For lysing, adherent cells were washed once with 100 μL of DPBS. Cells were lysed in 40 μL of 1×RIPA+HALT protease inhibitor on ice for 10 minutes and frozen until use at −80° C. Thawed lysates were cleaned by filtration in 1.2 µm filter plates, or alternatively, were spun clean at 2300 g at 4° C. for 30 minutes.
For blotting, for each Western sample 30 μL of lysate was added to 10 μL of 4× LDS sample buffer, then denatured at 95° C. for 5 minutes in the thermal cycler and placed on ice. Samples were loaded on 4-15% Tris/Glycine gels and run for 25 minutes at 250 constant volts in 1× Tris/Glycine buffer with 4 μL of ladder and 12 μL of each sample loaded for each blot. Protein was transferred from gels to NC with BioRad Turbo dry-transfer unit with the Turbo/midi default program. All blots were rinsed with ddH2O and blocked for 1 hour at room temperature in 5% BSA in TBST (0.1%) on rocker. Blots were exposed to primary antibody in 5% BSA in TBST (0.1%) overnight at 4° C. on rocker (1:1000 for BRM (Cell Signaling Tech. cat #11966) and 1:2000 for alpha-tubulin (Cell Signaling Tech. cat #3873), a control protein. Blot was washed with TBST (0.1%) three times for 5 minutes on rocker at room temperature. Secondary antibody was added, and blots were incubated on a room temperature rocker for 1 hour with 1:18,000 anti-rabbit-HRP and/or anti-mouse-HRP in 5% BSA in TBST (0.1%). Blots were washed three times in TBST (0.1%) for 5 minutes at room temperature on the rocker. Signal was developed with Femto Maximum Sensitivity substrate for 4 minutes and blots read on ChemiDoc™.
as §1, with “DC50),” for “DC50)”, “10×” for “10× target”, “compound” for “compound concentration”
For processing, the plates were removed from incubator, the media was removed, and immediately 200 μL of cold (4° C.) DPBS was added to all wells. DPBS was then removed, and 50 μL of 4% paraformaldehyde (PFA) in DPBS (4° C.) was added to all wells, and the plates were incubated at room temperature for 20 minutes. PFA was then removed, and 200 μL of TBS-T containing 0.5% Triton X-100 was added to all wells, and the plates were incubated at room temperature for 30 minutes. TBS-T containing 0.5% Triton X-100 was then removed, and 50 μL of Li-Cor blocking solution was added, and the plates were incubated at room temperature for a minimum of one hour. The blocking solution was removed, and 50 μL of Li-Cor blocking solution containing primary antibody cocktail was added (1:1000 for BRM (Cell Signaling Tech. cat #11966) and 1:2000 for alpha-tubulin (Sigma cat #T6074), a control protein. Plates were then placed in cold room until the next day.
The next day plates were washed three times with TBS-T, 200 μL per well. Fifty […] of secondary antibody cocktail in LI-COR blocking solution (anti-rabbit_800 nm and anti-mouse_680 nm) was added to all wells (diluted 1:5000). The plates were incubated at room temperature for at least one hour while protected from light. The plates were washed twice with TBS-T, 200 μL per well.
To read each plate TBS-T was removed, and each plate was inverted tapped on a paper towel. […]

T1 sequence (P51531 whole entry): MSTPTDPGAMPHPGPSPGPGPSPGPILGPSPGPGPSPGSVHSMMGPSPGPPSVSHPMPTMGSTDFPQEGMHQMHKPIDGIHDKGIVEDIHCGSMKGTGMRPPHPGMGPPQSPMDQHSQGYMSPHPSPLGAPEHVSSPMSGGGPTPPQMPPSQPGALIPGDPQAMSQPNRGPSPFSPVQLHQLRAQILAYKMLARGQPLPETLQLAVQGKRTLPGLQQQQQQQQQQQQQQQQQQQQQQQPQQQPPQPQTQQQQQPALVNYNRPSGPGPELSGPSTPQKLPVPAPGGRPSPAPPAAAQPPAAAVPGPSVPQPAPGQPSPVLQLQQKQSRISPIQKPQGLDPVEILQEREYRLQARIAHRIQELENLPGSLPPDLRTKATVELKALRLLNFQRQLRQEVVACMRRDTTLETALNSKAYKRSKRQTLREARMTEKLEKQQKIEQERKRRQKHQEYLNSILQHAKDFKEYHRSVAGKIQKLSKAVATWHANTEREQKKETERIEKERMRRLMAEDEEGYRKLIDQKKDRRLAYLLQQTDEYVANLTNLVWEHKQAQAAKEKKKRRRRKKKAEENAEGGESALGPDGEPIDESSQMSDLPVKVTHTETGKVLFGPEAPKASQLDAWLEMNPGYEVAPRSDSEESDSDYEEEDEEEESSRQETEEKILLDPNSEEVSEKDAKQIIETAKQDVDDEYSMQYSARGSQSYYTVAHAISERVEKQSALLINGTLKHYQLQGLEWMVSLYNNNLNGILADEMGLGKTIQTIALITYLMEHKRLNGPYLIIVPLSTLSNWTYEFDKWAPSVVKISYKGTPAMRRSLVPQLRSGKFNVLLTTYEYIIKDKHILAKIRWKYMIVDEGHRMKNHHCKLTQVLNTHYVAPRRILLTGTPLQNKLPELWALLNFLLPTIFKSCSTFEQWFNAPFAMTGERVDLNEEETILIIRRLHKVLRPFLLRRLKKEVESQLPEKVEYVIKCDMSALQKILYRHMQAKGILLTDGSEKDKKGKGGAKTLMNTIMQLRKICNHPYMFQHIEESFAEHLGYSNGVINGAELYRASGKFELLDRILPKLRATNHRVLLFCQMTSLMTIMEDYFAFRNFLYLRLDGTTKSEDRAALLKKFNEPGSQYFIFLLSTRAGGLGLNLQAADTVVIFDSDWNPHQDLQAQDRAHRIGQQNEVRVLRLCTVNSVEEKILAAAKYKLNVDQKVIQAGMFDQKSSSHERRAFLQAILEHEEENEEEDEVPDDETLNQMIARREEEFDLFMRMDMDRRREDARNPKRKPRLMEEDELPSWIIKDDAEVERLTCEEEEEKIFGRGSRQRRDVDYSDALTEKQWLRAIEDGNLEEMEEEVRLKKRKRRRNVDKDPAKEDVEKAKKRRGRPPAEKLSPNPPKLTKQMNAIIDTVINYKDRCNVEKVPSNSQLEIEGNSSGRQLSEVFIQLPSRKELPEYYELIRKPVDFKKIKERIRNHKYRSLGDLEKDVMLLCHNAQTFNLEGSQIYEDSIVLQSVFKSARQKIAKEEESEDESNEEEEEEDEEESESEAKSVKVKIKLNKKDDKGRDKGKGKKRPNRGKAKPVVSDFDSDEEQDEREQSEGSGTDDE

Q: Which results are given for Cc1ncsc1-c1ccc([C@H](C)NC(=O)[C@@H]2C[C@@H](O)CN2C(=O)[C@@H](c2cc(N3CCC(CN4CCC5(CC4)CC(N4CCO[C@H](C(C)n6cc(-c7cc(-c8ccccc8O)nnc7N)cn6)C4)C5)CC3)no2)C(C)C)cc1 (stereo partly drawn) [Compound 88, (2S,4R)-1-[(2R)-2-{3-[4-({2-[(2S)-2-(1-(4-[3-amino-6-(2-hydroxyphenyl)pyridazin-4-yl]-1H-pyrazol-1-yl}ethyl)morpholin-4-yl]-7-azaspiro[3.5]nonan-7-yl}methyl)piperidin-1-yl]-1,2-oxazol-5-yl}-3-methylbutanoyl]-4-hydroxy-N-[(1S)-1-[4-(4-methyl-1,3-thiazol-5-yl)phenyl]ethyl]pyrrolidine-2-carboxamide]?
A: DC50: < 2.5 nM; Dmax: > 75%

Q: Which DC50 does the source give for CC(C)[C@@H](C(=O)N1C[C@H](O)C[C@H]1C(=O)N[C@@H](C)c1ccc(-c2ccnn2C)cc1)c1cc(N2CCC(CN3CCC(O[C@H]4C[C@H](OC(=O)N5CCN(c6cc(-c7ccccc7O)nnc6N)CC5)C4)CC3)CC2)no1 [Compound 115, (1r,3r)-3-({1-[(1-{5-[(2R)-1-[(2S,4R)-4-hydroxy-2-{[(1S)-1-[4-(1-methyl-1H-pyrazol-5-yl)phenyl]ethyl]carbamoyl}pyrrolidin-1-yl]-3-methyl-1-oxobutan-2-yl]-1,2-oxazol-3-yl}piperidin-4-yl)methyl]piperidin-4-yl}oxy)cyclobutyl 4-[3-amino-6-(2-hydroxyphenyl)pyridazin-4-yl]piperazine-1-carboxylate] here?
A: ≥ 30 nM

Q: Which DC50 does the source give for CC(C)[C@@H](C(=O)N1C[C@H](O)C[C@H]1C(=O)N[C@@H](C)c1ccc(C#N)cc1)c1cc(N2CCC(OCCN3CCC(O[C@H]4C[C@H](Oc5cc(N6C7CCC6CN(c6cc(-c8ccccc8O)nnc6N)C7)ccn5)C4)CC3)CC2)no1 [Compound 153, (2S,4R)-N-[(1S)-1-(4-cyanophenyl)ethyl]-4-hydroxy-1-[(2R)-3-methyl-2-{3-[4-(2-{4-[(1r,3r)-3-[(4-{3-[3-amino-6-(2-hydroxyphenyl)pyridazin-4-yl]-3,8-diazabicyclo[3.2.1]octan-8-yl}pyridin-2-yl)oxy]cyclobutoxy]piperidin-1-yl}ethoxy)piperidin-1-yl]-1,2-oxazol-5-yl}butanoyl]pyrrolidine-2-carboxamide] here?
A: < 2.5 nM

Q: What about the Dmax of the same compound?
A: > 75%

Q: With Cc1ncsc1-c1ccc([C@H](C)NC(=O)[C@@H]2C[C@@H](O)CN2C(=O)[C@@H](c2cc(N3CCC(CN4CCC(O[C@H]5C[C@H](N6CCC([C@H](C)n7cc(-c8cc(-c9ccccc9O)nnc8N)cn7)CC6)C5)CC4)CC3)no2)C(C)C)cc1 [Compound 9, (2S,4R)-4-hydroxy-N-[(1S)-1-[4-(4-methyl-1,3-thiazol-5-yl)phenyl]ethyl]-1-[(2R)-3-methyl-2-{3-[4-({4-[(1r,3r)-3-{4-[(1S)-1-{4-[3-amino-6-(2-hydroxyphenyl)pyridazin-4-yl]-1H-pyrazol-1-yl}ethyl]piperidin-1-yl}cyclobutoxy]piperidin-1-yl}methyl)piperidin-1-yl]-,2-oxazol-5-yl}butanoyl]pyrrolidine-2-carboxamide] as the compound, how does the DC50 read?
A: < 2.5 nM

Q: What about the Dmax of the same compound?
A: > 75%

Q: How did the DC50 turn out when Cc1ncsc1-c1ccc([C@H](C)NC(=O)[C@@H]2C[C@@H](O)CN2C(=O)[C@@H](c2cc(N3CCC(CN4CCC5(CC4)CC(N4CCOC6(CN(CC7C8CCC7CN(c7cc(-c9ccccc9O)nnc7N)C8)C6)C4)C5)CC3)no2)C(C)C)cc1 (stereo partly drawn) [Compound 125, (2S,4R)-1-[(2R)-2-{3-[4-({2-[2-({3-[3-amino-6-(2-hydroxyphenyl)pyridazin-4-yl]-3-azabicyclo[3.2.1]octan-8-yl}methyl)-5-oxa-2,8-diazaspiro[3.5]nonan-8-yl]-7-azaspiro[3.5]nonan-7-yl}methyl)piperidin-1-yl]-1,2-oxazol-5-yl}-3-methylbutanoyl]-4-hydroxy-N-[(1S)-1-[4-(4-methyl-1,3-thiazol-5-yl)phenyl]ethyl]pyrrolidine-2-carboxamide] was run?
A: < 2.5 nM

Q: What about the Dmax of the same compound?
A: > 75%

Q: How did the DC50 turn out when CC(C)[C@@H](C(=O)N1C[C@H](O)C[C@H]1C(=O)N[C@@H](C)c1ccc(C#N)cc1)c1cc(N2CCC(CN3CC[C@H](Oc4cc(N5C6CCC5CN(c5cc(-c7ccccc7O)nnc5N)C6)ccn4)C(F)(F)C3)CC2)no1 [Compound 146, (2S,4R)-1-[(2R)-2-[3-(4-{[(4S)-4-[(4-{3-[3-amino-6-(2-hydroxyphenyl)pyridazin-4-yl]-3,8-diazabicyclo[3.2.1]octan-8-yl}pyridin-2-yl)oxy]-3,3-difluoropiperidin-1-yl]methyl}piperidin-1-yl)-1,2-oxazol-5-yl]-3-methylbutanoyl]-N-[(1S)-1-(4-cyanophenyl)ethyl]-4-hydroxypyrrolidine-2-carboxamide] was run?
A: 10 to 30 nM

Q: What about the Dmax of the same compound?
A: > 75%

Q: Cc1ncsc1-c1ccc([C@H](C)NC(=O)[C@@H]2C[C@@H](O)CN2C(=O)[C@@H](c2cc(N3CCC(CN4CCC5(CC4)CC(N4C[C@H](CN6C7CCC6CN(c6cc(-c8ccccc8O)nnc6N)C7)O[C@H](C)C4)C5)CC3)no2)C(C)C)cc1 [Compound 73, (2S,4R)-1-[(2R)-2-{3-[4-({2-[(2R,6R)-2-({3-[3-amino-6-(2-hydroxyphenyl)pyridazin-4-yl]-3,8-diazabicyclo[3.2.1]octan-8-yl}methyl)-6-methylmorpholin-4-yl]-7-azaspiro[3.5]nonan-7-yl}methyl)piperidin-1-yl]-1,2-oxazol-5-yl}-3-methylbutanoyl]-4-hydroxy-N-[(1S)-1-[4-(4-methyl-1,3-thiazol-5-yl)phenyl]ethyl]pyrrolidine-2-carboxamide] was tested. Which DC50 did it give?
A: < 2.5 nM

Q: What about the Dmax of the same compound?
A: > 75%

Q: Which results are given for Cc1ncsc1-c1ccc([C@H](C)NC(=O)[C@@H]2C[C@@H](O)CN2C(=O)[C@@H](c2cc(N3CCC(CN4CCC5(CC4)CC(N4CCO[C@H](CN6C7CCC6CN(c6cc(-c8ccccc8O)nnc6N)C7)C4)C5)CC3)no2)C(C)C)cc1 [Compound 35, (2S,4R)-1-[(2R)-2-{3-[4-({2-[(2S)-2-({3-[3-amino-6-(2-hydroxyphenyl)pyridazin-4-yl]-3,8-diazabicyclo[3.2.1]octan-8-yl}methyl)morpholin-4-yl]-7-azaspiro[3.5]nonan-7-yl}methyl)piperidin-1-yl]-1,2-oxazol-5-yl}-3-methylbutanoyl]-4-hydroxy-N-[(1S)-1-[4-(4-methyl-1,3-thiazol-5-yl)phenyl]ethyl]pyrrolidine-2-carboxamide]?
A: DC50: < 2.5 nM; Dmax: > 75%

Q: With CC(C)[C@H](C(=O)N1C[C@H](O)C[C@H]1C(=O)N[C@@H](C)c1ccc(C#N)cc1)c1cc(N2CCC(OCCN3CCC(O[C@H]4C[C@H](Oc5cc(N6C7CCC6CN(c6cc(-c8ccccc8O)nnc6N)C7)ccn5)C4)CC3)CC2)no1 [Compound 152, (2S,4R)-N-[(1S)-1-(4-cyanophenyl)ethyl]-4-hydroxy-1-[(2S)-3-methyl-2-{3-[4-(2-{4-[(1r,3r)-3-[(4-{3-[3-amino-6-(2-hydroxyphenyl)pyridazin-4-yl]-3,8-diazabicyclo[3.2.1]octan-8-yl}pyridin-2-yl)oxy]cyclobutoxy]piperidin-1-yl}ethoxy)piperidin-1-yl]-1,2-oxazol-5-yl}butanoyl]pyrrolidine-2-carboxamide] as the compound, how does the DC50 read?
A: ≥ 30 nM
